Test results as given in ChEMBL document CHEMBL1201862, “PubChem BioAssay data set” (2004).
Values belong to the compound of their own block, whether it stands above or below them. Calls of active or inactive are those of the source.

Assays:
[1] = target: 26S proteasome non-ATPase regulatory subunit 14 (Homo sapiens, UniProt O00487); assay: inhibition of proteasome subunit RPN11 – biochemical, fluorescence polarization, uHTS hits, confirmation (AID 602368); format: functional
[2] = target: 72 kDa type IV collagenase (Homo sapiens, UniProt P08253); assay: Dose Response validation of uHTS RPN11 inhibitor hits using a MMP-2 Fluorescence assay.; format: functional
[3] = target: Prothrombin (Bos taurus, UniProt P00735); assay: thrombin protease inhibitors – biochemical, fluorescence polarization, uHTS hits, dose response (AID 602369); format: functional
[4] = target: T1, RNA-binding protein pos-1 (Caenorhabditis elegans, UniProt G5EF15); assay: disruptors of C. elegans POS-1 RNA interaction – biochemical, fluorescence polarization, dose response (AID 1964);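 also: purified POS-1 fused to maltose binding protein made in E. coli; potency of compounds blocking POS-1 binding to fluorescent RNA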
T1 sequence (G5EF15 whole entry): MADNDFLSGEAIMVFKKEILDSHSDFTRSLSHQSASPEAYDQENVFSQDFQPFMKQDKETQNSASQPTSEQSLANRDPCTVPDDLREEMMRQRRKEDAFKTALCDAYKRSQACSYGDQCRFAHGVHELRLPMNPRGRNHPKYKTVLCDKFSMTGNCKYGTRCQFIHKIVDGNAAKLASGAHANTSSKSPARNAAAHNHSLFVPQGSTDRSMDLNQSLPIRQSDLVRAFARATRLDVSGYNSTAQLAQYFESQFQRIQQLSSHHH

[5] = target: T2, Zinc finger protein mex-5 (Caenorhabditis elegans, UniProt Q9XUB2); assay: potency of MEX-5 RNA-binding blockers – biochemical, C. elegans, fluorescence polarization, dose response (AID 1960)
T2 sequence (Q9XUB2 whole entry): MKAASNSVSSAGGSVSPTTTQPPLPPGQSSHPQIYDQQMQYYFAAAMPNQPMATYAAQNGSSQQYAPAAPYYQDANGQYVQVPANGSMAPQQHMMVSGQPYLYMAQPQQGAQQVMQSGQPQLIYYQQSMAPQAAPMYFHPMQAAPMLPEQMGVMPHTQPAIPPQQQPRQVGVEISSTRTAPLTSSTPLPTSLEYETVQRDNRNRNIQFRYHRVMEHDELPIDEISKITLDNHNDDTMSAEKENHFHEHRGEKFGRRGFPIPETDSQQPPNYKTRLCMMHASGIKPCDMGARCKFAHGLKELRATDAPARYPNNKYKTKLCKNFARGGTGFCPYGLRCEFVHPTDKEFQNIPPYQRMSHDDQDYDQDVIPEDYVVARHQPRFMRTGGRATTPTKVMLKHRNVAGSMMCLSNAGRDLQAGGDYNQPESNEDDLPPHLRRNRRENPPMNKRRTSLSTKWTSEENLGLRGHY

[6] = target: T3, Aspartyl aminopeptidase (Plasmodium falciparum 3D7, UniProt Q8I2J3)
T3 sequence (Q8I2J3 whole entry): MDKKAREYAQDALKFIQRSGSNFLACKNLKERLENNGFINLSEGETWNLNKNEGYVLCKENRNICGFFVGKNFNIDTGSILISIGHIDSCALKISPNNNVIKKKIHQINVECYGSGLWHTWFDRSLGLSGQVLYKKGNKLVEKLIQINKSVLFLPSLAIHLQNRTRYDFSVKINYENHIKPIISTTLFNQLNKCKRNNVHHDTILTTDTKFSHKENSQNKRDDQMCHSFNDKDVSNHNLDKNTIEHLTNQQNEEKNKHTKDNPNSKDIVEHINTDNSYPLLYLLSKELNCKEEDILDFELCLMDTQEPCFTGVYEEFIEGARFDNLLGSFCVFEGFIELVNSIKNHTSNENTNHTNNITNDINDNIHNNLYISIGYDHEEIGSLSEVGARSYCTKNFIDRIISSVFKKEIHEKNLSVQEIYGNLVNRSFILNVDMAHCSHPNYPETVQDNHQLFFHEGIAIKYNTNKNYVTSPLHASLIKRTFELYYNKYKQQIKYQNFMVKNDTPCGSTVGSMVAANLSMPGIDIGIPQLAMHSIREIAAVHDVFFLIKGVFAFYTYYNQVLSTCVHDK

[7] = target: Procathepsin L (Homo sapiens, UniProt P07711)
[8] = target: T4, DNA repair and recombination protein RAD54-like (Homo sapiens, UniProt Q92698); assay: RAD54 Holliday junction migration blockers – biochemical, fluorescence, cherry-picked samples, dose series, confirmation (AID 651657); format: functional
T4 sequence (Q92698 whole entry): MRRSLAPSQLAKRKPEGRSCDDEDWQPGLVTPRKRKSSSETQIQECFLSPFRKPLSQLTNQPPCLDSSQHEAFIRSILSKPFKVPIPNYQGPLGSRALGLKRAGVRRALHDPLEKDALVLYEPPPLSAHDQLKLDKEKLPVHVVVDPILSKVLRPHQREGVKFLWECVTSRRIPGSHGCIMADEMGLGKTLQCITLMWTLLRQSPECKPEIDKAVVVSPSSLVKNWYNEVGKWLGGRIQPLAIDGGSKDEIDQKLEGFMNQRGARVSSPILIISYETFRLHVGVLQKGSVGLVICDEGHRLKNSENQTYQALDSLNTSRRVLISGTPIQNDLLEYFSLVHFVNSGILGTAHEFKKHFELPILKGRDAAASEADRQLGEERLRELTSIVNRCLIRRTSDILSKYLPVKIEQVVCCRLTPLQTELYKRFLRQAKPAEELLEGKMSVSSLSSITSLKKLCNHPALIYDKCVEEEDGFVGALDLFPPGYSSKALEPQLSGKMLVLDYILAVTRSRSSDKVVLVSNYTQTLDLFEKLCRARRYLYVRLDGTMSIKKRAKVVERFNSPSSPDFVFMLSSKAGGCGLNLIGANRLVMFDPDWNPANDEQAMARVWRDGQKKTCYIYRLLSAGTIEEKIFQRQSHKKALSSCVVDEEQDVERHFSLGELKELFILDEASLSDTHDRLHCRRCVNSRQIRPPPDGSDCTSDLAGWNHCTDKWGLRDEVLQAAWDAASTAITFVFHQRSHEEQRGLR

[9] = HIV-1 Vif–A3G interaction blockers – biochemical, TR-FRET, GST-Vif 1-94, biotin-A3G peptide, dose response retest, primary screen (AID 1117319); format: functional;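 also: TR-FRET signal of purified GST-Vif binding a biotinylated A3G peptide; inhibitors lower the FRET signal by blocking Vif and A3G binding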
[10] = HPDE-C7 pancreatic duct cell viability loss – fluorescence, HTS (AID 430); format: functional, cell-based; settings: Homo sapiens
[11] = viability loss of HPDE-C7K cells – cell-based, fluorescence, HTS, primary screen (AID 431); format: functional; settings: Homo sapiens
[12] = target: T5, High affinity choline transporter 1 (Homo sapiens, UniProt Q9GZV3); assay: human choline transporter blockers, potency – cell-based, 5-point CRC, membrane potential dye, dose response (AID 504840); format: functional
T5 sequence (Q9GZV3 whole entry): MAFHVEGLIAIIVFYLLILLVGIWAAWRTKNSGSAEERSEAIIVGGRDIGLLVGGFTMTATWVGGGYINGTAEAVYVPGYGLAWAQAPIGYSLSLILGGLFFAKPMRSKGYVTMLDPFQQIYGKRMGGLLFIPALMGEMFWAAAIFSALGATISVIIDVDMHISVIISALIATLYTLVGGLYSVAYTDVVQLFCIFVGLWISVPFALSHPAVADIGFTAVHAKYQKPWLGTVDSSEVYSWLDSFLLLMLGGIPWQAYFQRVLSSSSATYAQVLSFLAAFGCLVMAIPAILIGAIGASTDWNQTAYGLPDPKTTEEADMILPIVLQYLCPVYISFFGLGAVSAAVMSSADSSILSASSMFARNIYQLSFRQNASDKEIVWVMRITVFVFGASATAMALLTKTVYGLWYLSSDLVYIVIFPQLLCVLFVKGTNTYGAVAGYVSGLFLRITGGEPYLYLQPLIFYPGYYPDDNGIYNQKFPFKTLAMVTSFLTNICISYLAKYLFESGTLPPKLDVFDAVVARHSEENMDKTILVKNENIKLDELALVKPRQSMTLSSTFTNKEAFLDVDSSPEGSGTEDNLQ

[13] = general mammalian cell viability loss – inhibitor set, cherry-pick, set 2, cytotoxicity control for miR-122 modulator project, dose response (AID 720697); format: functional, cell-based
[14] = target: T6, DNA repair protein RAD52 homolog (Homo sapiens, UniProt P43351); format: functional, biochemical
T6 sequence (P43351 whole entry): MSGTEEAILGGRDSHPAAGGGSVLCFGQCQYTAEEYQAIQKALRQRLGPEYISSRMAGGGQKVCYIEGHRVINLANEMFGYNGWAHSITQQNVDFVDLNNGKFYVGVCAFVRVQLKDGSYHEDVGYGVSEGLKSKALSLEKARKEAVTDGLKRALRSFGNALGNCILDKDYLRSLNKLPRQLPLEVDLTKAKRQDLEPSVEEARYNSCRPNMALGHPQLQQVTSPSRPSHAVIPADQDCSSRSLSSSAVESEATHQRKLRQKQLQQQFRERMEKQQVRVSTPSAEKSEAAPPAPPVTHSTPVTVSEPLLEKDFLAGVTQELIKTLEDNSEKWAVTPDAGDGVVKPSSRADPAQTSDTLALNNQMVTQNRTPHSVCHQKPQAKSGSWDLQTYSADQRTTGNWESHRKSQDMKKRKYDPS

Chain of Procathepsin L (P07711 whole entry): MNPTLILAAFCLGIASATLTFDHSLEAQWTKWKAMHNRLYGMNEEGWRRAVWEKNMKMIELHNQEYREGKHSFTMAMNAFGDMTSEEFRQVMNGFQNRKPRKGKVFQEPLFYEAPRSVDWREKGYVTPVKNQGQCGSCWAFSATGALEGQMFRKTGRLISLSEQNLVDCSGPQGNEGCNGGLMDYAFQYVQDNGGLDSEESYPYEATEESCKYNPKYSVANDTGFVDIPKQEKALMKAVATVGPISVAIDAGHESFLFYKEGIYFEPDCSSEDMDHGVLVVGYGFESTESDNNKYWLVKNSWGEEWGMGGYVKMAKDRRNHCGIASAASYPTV
Chain of 72 kDa type IV collagenase (P08253 whole entry): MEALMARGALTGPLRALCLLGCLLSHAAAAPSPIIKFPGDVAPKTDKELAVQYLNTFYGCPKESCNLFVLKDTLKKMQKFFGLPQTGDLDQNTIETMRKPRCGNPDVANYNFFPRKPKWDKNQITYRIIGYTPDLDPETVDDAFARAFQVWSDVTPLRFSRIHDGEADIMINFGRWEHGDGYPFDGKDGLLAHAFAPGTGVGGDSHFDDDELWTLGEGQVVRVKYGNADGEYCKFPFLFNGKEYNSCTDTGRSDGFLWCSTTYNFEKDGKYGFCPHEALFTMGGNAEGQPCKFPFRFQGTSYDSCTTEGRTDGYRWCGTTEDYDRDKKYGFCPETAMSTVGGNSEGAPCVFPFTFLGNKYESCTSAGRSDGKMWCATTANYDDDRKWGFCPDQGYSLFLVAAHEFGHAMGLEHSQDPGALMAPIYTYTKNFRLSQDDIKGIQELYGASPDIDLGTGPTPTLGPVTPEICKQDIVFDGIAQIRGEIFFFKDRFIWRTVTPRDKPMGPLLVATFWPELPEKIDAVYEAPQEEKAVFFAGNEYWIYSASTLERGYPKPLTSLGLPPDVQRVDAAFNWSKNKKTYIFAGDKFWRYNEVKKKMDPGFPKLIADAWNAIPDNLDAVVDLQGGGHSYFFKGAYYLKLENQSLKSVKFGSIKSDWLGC
Chain of 26S proteasome non-ATPase regulatory subunit 14 (O00487 whole entry): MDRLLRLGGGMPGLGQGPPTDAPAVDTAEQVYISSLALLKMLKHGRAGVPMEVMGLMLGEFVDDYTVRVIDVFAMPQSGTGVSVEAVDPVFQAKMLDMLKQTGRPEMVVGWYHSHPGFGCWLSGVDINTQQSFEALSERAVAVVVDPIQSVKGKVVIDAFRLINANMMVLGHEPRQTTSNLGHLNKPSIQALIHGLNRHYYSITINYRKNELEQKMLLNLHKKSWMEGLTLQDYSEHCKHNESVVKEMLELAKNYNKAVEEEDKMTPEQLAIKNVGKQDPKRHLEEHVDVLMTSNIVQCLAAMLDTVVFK

SMILES: Cc1nc2ccccn2c1C(=O)NNC(=O)Nc1ccccc1
IC50 [6]: 1.05 µM (active)
IC50 [7]: > 59.6 µM (not active)

SMILES: CCOCCCn1c(C)nc2c(c1=O)c1nc3ccccc3nc1n2CCC1=CCCCC1
EC50 [10]: > 20 µM (not active)
EC50 [11]: > 20 µM (not active)

SMILES: Cc1cc(C)nc(SCc2cc(=O)c(OC(=O)c3ccc(Br)o3)co2)n1
IC50 [12]: 14.5 µM (active)

SMILES: Cc1nnc(NNS(=O)(=O)c2ccc(Cl)cc2)[nH]c1=O
IC50 [6]: 1.57 µM (active)
IC50 [7]: > 59.6 µM (not active)

SMILES: COc1ccc(C(=O)N2C(=S)NC(=O)/C2=C\c2ccc(C)cc2)cc1
IC50 [1]: 22.5 µM (active)
IC50 [2]: 23.8 µM (active)
IC50 [3]: 37.8 µM (active)

SMILES: COC(=O)c1ccccc1NC(=O)c1cc(-c2cccs2)on1
EC50 [10]: > 20 µM (not active)
EC50 [11]: > 20 µM (not active)

SMILES: CCc1ccc(S(=O)(=O)NC(CC(=O)O)c2ccccc2)cc1 (configuration not stated)
EC50 [10]: > 20 µM (not active)
EC50 [11]: > 20 µM (not active)

SMILES: COc1cc2nc(C3CCC3)n(NC(=O)C3CCCC(OC)C3)c(=O)c2cc1OC (configuration not stated)
AC50 [13]: 6.2 µM (active)

SMILES: Cc1ccccc1CCNCc1cc2cccc(C)c2nc1O
IC50 [12]: 10 µM (active)

SMILES: COc1cccc(-c2cc3nc(NCCCN(C)C)n(C)c(=O)c3s2)c1
AC50 [8]: 30.6 µM (active)
AC50 [14]: 7.04 µM (active)

SMILES: Cc1cc(C(=O)Nc2ccc3c(c2)C(=O)N(C)[C@H]2CC[C@H](CC(=O)N[C@@H](C)c4ccccc4)O[C@H]2CO3)no1
AC50 [13]: 0.478 µM (active)

SMILES: C/C=C/c1ccc([C@H]2[C@@H](CO)N[C@@H]2CN(C(=O)c2ccccc2F)C(C)C)cc1
AC50 [13]: 2.45 µM (active)

SMILES: CN1C[C@H]2[C@@H](c3ccccc31)[C@@H](CO)N2C(=O)C1CCOCC1
AC50 [13]: < 0.195 µM (active)

More lines, now with the values ahead:

IC50 [1]: 57.7 µM (active)
IC50 [2]: 57.2 µM (active)
IC50 [3]: 78.1 µM (active)
SMILES: Cc1c(OCC(N)=O)ccc2c(-c3ccccc3)cc(=O)oc12

EC50 [4]: > 300 µM (not active)
EC50 [5]: > 300 µM (not active)
IC50 [1]: 13.5 µM (active)
IC50 [2]: > 100 µM (inactive)
IC50 [3]: 23.5 µM (active)
SMILES: Cc1ccc(/C=C(\C#N)C(=O)Nc2c(C)cccc2C)s1

AC50 [8]: 100 µM (inactive)
SMILES: Cc1ccc2oc(=O)c3cc(C(=O)NCCCN4C(C)CCCC4C)sc3c2c1 (configuration not stated)

IC50 [9]: > 100 µM (active)
SMILES: NCCOc1ccccc1Cc1ccccc1

IC50 [9]: > 100 µM (active)
SMILES: COC(=O)Nc1sc2c(c1C(=O)NCc1ccco1)CCCC2

IC50 [9]: > 100 µM (active)
SMILES: O=C(CCN1C(=O)c2ccccc2C1=O)NCc1ccco1

AC50 [8]: 19.9 µM (active)
SMILES: CCn1c(=N)c(C(=O)NC)cc2c(=O)n3cccc(C)c3nc21

IC50 [9]: > 100 µM (active)
SMILES: O=C(c1cnn2cccnc12)N1CCN(Cc2ccc3c(c2)OCO3)CC1

IC50 [12]: 13.2 µM (active)
SMILES: C=CCNc1nc2ccccc2nc1NS(=O)(=O)c1ccc(Br)cc1

IC50 [9]: > 100 µM (active)
SMILES: COc1cccc(-n2c(Cc3cc(O)nc(O)n3)nnc2SCC(=O)NC2CCCC2)c1

IC50 [12]: 25.1 µM (active)
SMILES: COc1ccc(NC(C)(C)c2nnnn2-c2c(C)cccc2C)cc1

IC50 [12]: 15.1 µM (active)
SMILES: CC1CN(C(=O)CCC(=O)NC(C)c2ccccc2)c2cc(Cl)ccc2O1 (configuration not stated)

IC50 [1]: 30.7 µM (active)
IC50 [2]: > 100 µM (inactive)
IC50 [3]: 26.4 µM (active)
SMILES: CN(CC(=O)Nc1ccc(Cl)cc1)C(=O)CCc1nc(O)c2c3c(sc2n1)CCCC3

IC50 [6]: 3.81 µM (active)
IC50 [7]: > 59.6 µM (not active)
SMILES: O=S(=O)(Nn1cnnc1)c1ccccc1

IC50 [9]: > 100 µM (active)
SMILES: CC(=O)Nc1ccc(S(=O)(=O)Nc2nnc(C(C)C)s2)cc1

AC50 [8]: 12.4 µM (active)
SMILES: CCN1CCN(c2nc(N)c([N+](=O)[O-])c(Nc3cccc(C)c3)n2)CC1

IC50 [12]: 8.58 µM (active)
SMILES: C/C(=N/NC(=O)c1cc(Cl)ccc1O)C12CC3CC(CC(C3)C1)C2
